Like-named read-outs stand apart in the source and are kept apart here.
Columns and labels:
[1] = target: Acid phosphatase; test: Mouse hepatic lysosomal acid phosphatase activity; type: biochemical; conditions: Table V; mouse hepatic, 60 min incubation
Source text: (§1) 1. Cf1 male mouse hepatic 10% homogenates in 0.25M sucrose+0.001MEDTA,pH 7.2.
(§2) Lysosomal Enzymes - free and total [triton X-100].
(§3) 1. Acid phosphatase -beta glycerol-3-phosphate, pH 5.0, released IP 720 nm.
Acid phosphatase activity -

[2] = target: T1, Cathepsin D (Mus musculus, UniProt P18242); test: Mouse hepatic lysosomal cathepsin D activity; type: biochemical; conditions: Table V; mouse hepatic, 60 min incubation; read-out: Cathepsin D IC50
T1 construct: azocasein assay pH 5.0
T1 sequence (P18242 65-410): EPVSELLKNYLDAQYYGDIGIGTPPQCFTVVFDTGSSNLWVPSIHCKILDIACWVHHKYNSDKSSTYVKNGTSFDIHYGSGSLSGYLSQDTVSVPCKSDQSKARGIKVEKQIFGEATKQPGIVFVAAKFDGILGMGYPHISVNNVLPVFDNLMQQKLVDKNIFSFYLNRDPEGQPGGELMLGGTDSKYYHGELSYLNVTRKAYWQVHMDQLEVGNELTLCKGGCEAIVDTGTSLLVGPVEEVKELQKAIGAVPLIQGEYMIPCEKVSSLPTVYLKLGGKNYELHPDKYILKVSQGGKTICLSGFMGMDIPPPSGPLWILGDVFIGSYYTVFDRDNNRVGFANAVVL
Source text: as §1, §2
2. Acid Cathepsin D -azocasein-pH 5.0, hydrolytic azo-peptide produce 366 nm.
Cathepsin azo casein activity -

[3] = target: T2, Prostaglandin synthetase (Bos taurus, UniProt O62664); test: Prostaglandin synthetase (cyclooxygenase), purified beef seminal vesicle; type: biochemical; conditions: Table IX; commercial enzyme preparation; read-out: Beef Prostaglandin Cyclooxygenase IC50
T2 construct: Prostaglandin synthetase purified beef seminal vesicle; from tissue
T2 sequence (O62664 25-600): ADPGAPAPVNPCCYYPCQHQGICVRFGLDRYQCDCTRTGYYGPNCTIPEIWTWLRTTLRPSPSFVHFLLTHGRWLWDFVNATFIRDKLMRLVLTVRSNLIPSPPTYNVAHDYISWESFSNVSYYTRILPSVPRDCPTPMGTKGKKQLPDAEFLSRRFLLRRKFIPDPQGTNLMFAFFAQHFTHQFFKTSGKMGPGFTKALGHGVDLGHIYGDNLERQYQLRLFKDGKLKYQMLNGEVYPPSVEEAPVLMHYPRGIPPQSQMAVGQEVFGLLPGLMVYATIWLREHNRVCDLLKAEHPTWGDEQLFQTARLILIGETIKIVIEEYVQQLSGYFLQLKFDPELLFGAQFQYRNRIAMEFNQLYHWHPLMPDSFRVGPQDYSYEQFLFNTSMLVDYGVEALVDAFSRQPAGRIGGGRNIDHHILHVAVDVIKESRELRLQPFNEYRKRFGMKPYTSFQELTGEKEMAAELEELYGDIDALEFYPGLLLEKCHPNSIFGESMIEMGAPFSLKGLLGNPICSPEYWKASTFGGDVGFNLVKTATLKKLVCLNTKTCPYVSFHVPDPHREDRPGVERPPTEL
Source text: (§4) Prostaglandin synthetase purified beef seminal vesicle ^3 H arachidonic acid (86.2 Ci/mmol), tlc separation.

[4] = tested on: Trypsin; test: Mouse hepatic trypsin activity; type: biochemical; conditions: Table VI; mouse hepatic, 60 min incubation; read-out: Trypsin IC50
Source text: as §1
(§5) 1. Trypsin- N-benzoyl-L-arginine ethyl ester pH 8.0, hydrolytic product 253 nm.

[5] = target: Elastase; test: Mouse hepatic elastase activity; type: biochemical; conditions: Table VI, 60 min incubation
Source text: as §1
(§6) 2. Elastase- N-succinyl-L-alanyl-L-alanine-p-nitroanilide, pH 8.0, p-nitro anilide 410 nm.
Elastase activity - in vitro

[6] = tested on: Acid phosphatase; test: Mouse macrophage acid phosphatase activity; type: cell-based; conditions: Table VII; mouse macrophage cultured cells, 60 min incubation; read-out: Acid Phosphatase IC50
[7] = tested on: Aryl sulphatase; test: Mouse macrophage aryl sulphatase activity; type: cell-based; conditions: Table VII; mouse macrophage cultured cells, 60 min incubation; read-out: Aryl Sulphatase IC50
[8] = tested on: Trypsin; test: Mouse macrophage trypsin (BAEE) activity; type: cell-based; conditions: Table VIII; mouse macrophages, 60 min incubation; read-out: Trypsin BAEE IC50
[9] = tested on: Elastase; test: Mouse macrophage elastase activity; type: cell-based; conditions: Table VIII; mouse macrophages, 60 min incubation; read-out: Elastase IC50
[10] = tested on: Prostaglandin cyclooxygenase; test: Mouse macrophage prostaglandin cyclooxygenase activity; type: cell-based; conditions: Table VIII; mouse macrophages, 60 min incubation; read-out: Prostaglandin Cyclooxygenase IC50
Source text: 3. Mouse macrophages J774A.1 BALB/c
as §4

[11] = tested on: Pg-E2 synthesis; test: 3H-Arachidonic acid conversion to Pg-E2, CF1 hepatic liver; type: biochemical, mouse
[12] = tested on: Pg-E2 synthesis; test: 3H-Arachidonic acid conversion to Pg-E2, macrophage; type: cell-based, mouse
[13] = tested on: Trypsin; test: Human osteoporosis fibroblasts trypsin (BAEE) activity; type: cell-based
Source text: as §5

[14] = target: T3, Cathepsin D (Homo sapiens, UniProt P07339); test: Human osteoporosis fibroblasts cathepsin D (azo-casein) activity; type: cell-based
T3 construct: azocasein assay pH 5.0
T3 sequence (P07339 65-412): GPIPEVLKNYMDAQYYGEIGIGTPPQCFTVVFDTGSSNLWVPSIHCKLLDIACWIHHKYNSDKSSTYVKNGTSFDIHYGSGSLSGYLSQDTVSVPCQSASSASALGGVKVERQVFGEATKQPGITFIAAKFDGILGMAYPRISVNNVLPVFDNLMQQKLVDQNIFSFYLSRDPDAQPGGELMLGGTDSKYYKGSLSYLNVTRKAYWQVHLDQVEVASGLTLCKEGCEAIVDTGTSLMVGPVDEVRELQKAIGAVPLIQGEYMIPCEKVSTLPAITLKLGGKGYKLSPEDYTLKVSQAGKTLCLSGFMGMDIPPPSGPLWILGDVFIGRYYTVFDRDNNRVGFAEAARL
Source text: Osteoporosis Human Fibroblast-CRL-1140, Be SA1

[15] = tested on: Acid phosphatase; test: Human osteoporosis fibroblasts acid phosphatase activity; type: cell-based
Source text: as §3

[16] = tested on: Aryl sulphatase; test: Human osteoporosis fibroblasts aryl sulphatase activity; type: cell-based
Source text: 3. Aryl sulphatase- p-nitrocatechol sulfate, pH
5. 8 p-nitro-catechol product 510 nm.

[17] = tested on: Elastase; test: Human osteoporosis fibroblasts elastase activity; type: cell-based
Source text: as §6

[18] = tested on: Prostaglandin cyclooxygenase; test: Human osteoporosis fibroblasts prostaglandin cyclooxygenase activity; type: cell-based; conditions: Table XI, 60 min incubation, read-out: Prostaglandin Cyclooxygense IC50
[19] = tested on: lysosomal and proteolytic enzymes; test: Osteoporosis fibroblasts lysosomal and proteolytic enzymes (statement); type: cell-based, human
[20] = target: Clostridium histolyticum Collagenase Type I; test: Commercial collagenase type I; type: biochemical; conditions: Table IX; commercial enzyme preparation
Source text: 3. Collagenase I, Clostridium histolyticum, bone, skin, tendon, blood vessel, dentine, GI. substrate: rat collagen, N-[propionate-2-3-^3 H] propionylated measured as dpm released.

[21] = target: Clostridium histolyticum Collagenase Type II; test: Commercial collagenase type II; type: biochemical; conditions: Table IX; commercial enzyme preparation
Source text: 4. Collagenase II, Clostridium histolyticum, cartilage collagen.

[22] = target: T4, Porcine Pancreatic Elastase (Sus scrofa, UniProt P00772); test: Porcine pancreatic elastase activity in vitro; type: biochemical; conditions: Table IX; commercial enzyme preparation
T4 construct: purchased; host or cells: porcine pancreas
T4 sequence (P00772 27-266): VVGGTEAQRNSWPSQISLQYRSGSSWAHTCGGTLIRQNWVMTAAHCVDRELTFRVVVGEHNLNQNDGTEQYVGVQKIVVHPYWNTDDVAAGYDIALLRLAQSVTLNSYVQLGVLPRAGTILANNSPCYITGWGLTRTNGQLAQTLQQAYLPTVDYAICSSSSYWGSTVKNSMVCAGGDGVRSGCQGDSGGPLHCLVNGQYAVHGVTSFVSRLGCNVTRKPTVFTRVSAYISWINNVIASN
Source text: as §6

[23] = tested on: Hydroxyproline; test: Serum and urine hydroxyproline levels in vivo; conditions: Cf1 male mice, 8 mg/kg/day I.P. 14 days, N=6
[24] = tested on: Calcium; test: Serum and urine calcium levels in vivo; conditions: Cf1 male mice, 8 mg/kg/day I.P. 14 days, N=6
[25] = tested on: Cf1 male mice; test: Writhing reflex, 0.6% acetic acid; type: in vivo; conditions: Mus musculus, ip; Table IV

Question: Which results are given for `CCCCCCCCCCCCCCCC[N+](C)(C)[BH2-]C(=O)O` [Compound 7, N,N-Dimethylhexadecylamine-carboxyborane]?
Answer: IC50 [1]: 8.86 µM; IC50 [2]: 2.82 µM; IC50 [3]: 2.86 µM; IC50 [4]: 1.16 µM; IC50 [5]: 49.6 µM; IC50 [6]: 0.94 µM; IC50 [7]: 9.71 µM; IC50 [8]: 1.26 µM; IC50 [9]: 1.8 µM; IC50 [10]: 2.55 µM; hepatic Pg-E2 synthesis reduced [11]: 32%; 3H-Arachidonic acid conversion to Pg-E2 reduced ([11]; CF1 hepatic liver): 43%; macrophage Pg-E2 synthesis reduced [12]: 20%; 3H-Arachidonic acid conversion to Pg-E2 reduced ([12]; macrophage): 29%; IC50 ([13]; Table VIIIA, osteoporosis fibroblasts in vitro, read-out: Trypsin (BAEE) IC-50): 7.4 µM; IC50 ([13]; Table XI, human osteoporosis fibroblasts, 60 min incubation, read-out: Trypsin BAEE IC50): 7.4 µM; IC50 ([14]; Table VIIIA, osteoporosis fibroblasts in vitro, read-out: Cathepsin Azo-casein IC-50): 2.06 µM; IC50 ([14]; Table X, human osteoporosis fibroblasts, DMEM +10% FCS + P/S, read-out: Cathepsin D IC50): 2.06 µM; IC50 ([15]; Table VIIIA, osteoporosis fibroblasts in vitro, read-out: Acid Phosphatase IC-50): 16.6 µM; IC50 ([15]; Table X, human osteoporosis fibroblasts, read-out: Acid Phosphatase IC50): 16.6 µM; IC50 ([16]; Table VIIIA, osteoporosis fibroblasts in vitro, read-out: Aryl Sulfatase IC-50): 9.01 µM; IC50 ([16]; Table X, human osteoporosis fibroblasts, read-out: Aryl Sulphatase IC50): 9.01 µM; IC50 ([17]; Table VIIIA, osteoporosis fibroblasts in vitro, read-out: Elastase IC-50): 3.86 µM; IC50 ([17]; Table XI, human osteoporosis fibroblasts, 60 min incubation, read-out: Elastase IC50): 3.86 µM; IC50 [18]: 6.77 µM; inhibition of lysosomal and proteolytic enzymes of osteoporosis fibroblasts [19]: potent inhibitors; IC50 [20]: 615 µM; IC50 [21]: 109 µM; IC50 [22]: 49.7 µM; Hydroxyproline serum [23]: 84.1 % Control; Hydroxyproline urine [23]: 28.7 % Control; Calcium urine [24]: 80.7 % Control; response vs control in vivo at 20 mg/kg [25]: 54%

Reference: US5312816A, “Method of combatting osteoporosis in mammalian subjects, utilizing organic boron compounds” (priority 1993, dated 1994)
